ChEMBL document CHEMBL4340579, “HPLC-DAD-Directed Isolation of Linearly Fused Prenylated Indole Alkaloids from a Soil-Derived Aspergillus versicolor” (J Nat Prod, 2019)

Legend:
[1] = system: MCF7; assay: Cytotoxicity in human MCF7 cells assessed as reduction in cell viability incubated for 3 days by MTT assay; format: functional, cell-based
[2] = system: NCM460; assay: Cytotoxicity in human NCM460 cells assessed as reduction in cell viability incubated for 3 days by MTT assay; format: cell-based
[3] = system: HeLa; assay: Cytotoxicity in human HeLa cells assessed as reduction in cell viability incubated for 3 days by MTT assay; format: functional, cell-based
[4] = system: A549; assay: Cytotoxicity in human A549 cells assessed as reduction in cell viability incubated for 3 days by MTT assay; format: functional, cell-based
[5] = system: HepG2; assay: Cytotoxicity in human HepG2 cells assessed as reduction in cell viability incubated for 3 days by MTT assay; format: functional, cell-based
[6] = Homo sapiens, HeLa, 72 h, read-out: IC50

| Structure (SMILES) | IC50 ([1]; mcf7) | IC50 ([2]; ncm460) | IC50 ([3]; hela) | IC50 ([4]; a549) | IC50 ([5]; hepg2) | IC50 [3, 6] [nM] | IC50 ([1]; Homo sapiens, MCF7, 72 h, read-out: IC50) [nM] | IC50 ([2]; Homo sapiens, NCM460, 72 h, read-out: IC50) [nM] | IC50 ([4]; Homo sapiens, A549, 72 h, read-out: IC50) [nM] | IC50 ([5]; Homo sapiens, HepG2, 72 h, read-out: IC50) [nM] |
| --- | --- | --- | --- | --- | --- | --- | --- | --- | --- | --- |
| C=CC(C)(C)[C@]1(C[C@@H]2NC(=O)[C@@H]3CCCN3C2=O)C(=O)Nc2cc3c(cc21)C=CC(C)(C)O3 | Not Active | Non-Toxic | Not Active | Not Active | Not Active | – | – | – | – | – |
| C=CC(C)(C)[C@]1(CC2NC(=O)C3(O)CCCN3C2=O)C(=O)Nc2cc3c(cc21)C=CC(C)(C)O3 (stereo not given in full) | Not Active | Non-Toxic | Not Active | Not Active | Not Active | – | – | – | – | – |
| C=CC(C)(C)[C@@]12Nc3cc4c(cc3[C@]1(O)C[C@]1(NC(=O)[C@H]3CCCN3C1=O)O2)C=CC(C)(C)O4 | Not Active | Non-Toxic | – | Not Active | Not Active | 7300 | – | – | – | – |
| C=CC(C)(C)[C@@]12Nc3cc4c(cc3[C@]1(O)C[C@]1(O)C(=O)N3CCC[C@H]3C(=O)N21)C=CC(C)(C)O4 | Not Active | Non-Toxic | Not Active | Not Active | Not Active | – | – | – | – | – |
| C=CC(C)(C)[C@@]1(C[C@@H]2NC(=O)[C@@H]3CCCN3C2=O)C(=O)Nc2cc3c(cc21)C=CC(C)(C)O3 | Not Active | Non-Toxic | Not Active | Not Active | Not Active | – | – | – | – | – |
| C=CC(C)(C)[C@@]12Nc3cc4c(cc3[C@]1(O)C[C@H]1C(=O)N3CCC[C@H]3C(=O)N12)C=CC(C)(C)O4 | Not Active | Non-Toxic | Not Active | Not Active | Not Active | – | – | – | – | – |
| CC(=O)O[C@H]1C(=O)[C@@]2(C)[C@H]([C@H](OC(=O)c3ccccc3)[C@]3(O)C[C@H](OC(=O)[C@H](O)[C@@H](NC(=O)c4ccccc4)c4ccccc4)C(C)=C1C3(C)C)[C@]1(OC(C)=O)CO[C@@H]1C[C@@H]2O [PACLITAXEL] | – | – | – | – | – | < 8 | < 8 | < 8 | < 8 | < 8 |
| C=CC(C)(C)[C@]1(C[C@]2(OC)NC(=O)[C@@H]3CCCN3C2=O)C(=O)Nc2cc3c(cc21)C=CC(C)(C)O3 | Not Active | Non-Toxic | Not Active | Not Active | Not Active | – | – | – | – | – |
| C=CC(C)(C)[C@]1(CC2(O)NC(=O)C3CCCN3C2=O)C(=O)Nc2cc3c(cc21)C=CC(C)(C)O3 (stereo not given in full) | Not Active | Non-Toxic | Not Active | Not Active | Not Active | – | – | – | – | – |
| C=CC(C)(C)c1[nH]c2cc3c(cc2c1C=O)C=CC(C)(C)O3 | Not Active | Non-Toxic | – | Not Active | Not Active | 6400 | – | – | – | – |
